{"source": "patent US10258599B2", "about": "“Compounds for use in the prevention or treatment of cancer” (SEMMELWEIS UNIVERSITY, priority 2014, dated 2019)", "key": {"[1]": {"tested_on": "Daoy HTB-186 cell line", "assay": "MTT proliferation assay, Daoy medulloblastoma cells", "assay_type": "cell-based, human", "details": "for proliferation of cultured medulloblastoma cells: monotherapy, nine concentrations 10^-14 to 10^-6 M, 72 hours", "method": "(§1) Human medulloblastoma cell line, Daoy was purchased from ATCCC, UW-228 was obtained from the courtesy of Professor Silber (Univerity of Washington, Seattle, Wash., USA).\n(§2) Daoy and UW-228-2 cell lines were maintained in culture medium (each 500 ml Minimum Essential Medium Eagle, Alpha Modification (M8042, Sigma, St Louis, USA) with 50 ml FCS (Gibco), 40 mg Gentamicin (Sandoz), 5 ml sodium-pyruvate (S8636, Sigma, St Louis, USA), 5 ml non-essential-amino acid solution (M7145, Sigma, St Louis, USA), 10 ml L-glutamin (Sigma, St Louis, USA) at 37° C. in humified 5% CO2.\n(§3) In each well 3×10^3 Daoy or UW-228-2 cells were seeded in 96-well plates (Sarstedt), solved in 100 μl of its own medium with 10% FCS. 24 hours after seeding, cells were treated for 72 hours by drugs solved in further 100 μl medium. First, both cell lines were treated by (−)-BPAP and (−)-deprenil in monotherapy to determine its dose-effect curves in concentration of 10^−6, 10^−7, 10^−8, 10^−9, […], 10^−11, 10^−12, 10^−13 and 10^−14 M. In combined treatment 10^−3, 3.3×10^−4, […] and 3.7×10^−5 M of temozolomide (Schering Plough, USA) or 0.04, 0.2, 1, 5 μM of Cisplatin (Ebewe Pharma, Austria) or 0.04, 0.2, 1, 5 μM of etoposide (Ebewe Pharma, Austria) or 10^−7, 10^−6, 10^−5 and 10^−4 μM (UW228-2) or 0.001, 0.005, 0.025 and 0.125 μM (Daoy) of Vincristin (Richter Gedeon, Hungary) were applied in monotherapy or combined with 10^−13 or 10^−8 M of (−)-BPAP or (−)-deprenil.\n(§4) Cell proliferation was evaluated by MTT (3-(4,5-Dimethylthiazol-2-yl)-2,5-diphenyltetrazolium bromide) assay (M5655, Sigma) after 72-hour treatment by the method described in manufacturer's protocol."}, "[2]": {"biological_target": "T1, MAO-B (Rattus norvegicus, UniProt P19643)", "T1 construct": "from tissue; host or cells: brain, in vivo dosing", "T1 sequence (P19643 1-520)": "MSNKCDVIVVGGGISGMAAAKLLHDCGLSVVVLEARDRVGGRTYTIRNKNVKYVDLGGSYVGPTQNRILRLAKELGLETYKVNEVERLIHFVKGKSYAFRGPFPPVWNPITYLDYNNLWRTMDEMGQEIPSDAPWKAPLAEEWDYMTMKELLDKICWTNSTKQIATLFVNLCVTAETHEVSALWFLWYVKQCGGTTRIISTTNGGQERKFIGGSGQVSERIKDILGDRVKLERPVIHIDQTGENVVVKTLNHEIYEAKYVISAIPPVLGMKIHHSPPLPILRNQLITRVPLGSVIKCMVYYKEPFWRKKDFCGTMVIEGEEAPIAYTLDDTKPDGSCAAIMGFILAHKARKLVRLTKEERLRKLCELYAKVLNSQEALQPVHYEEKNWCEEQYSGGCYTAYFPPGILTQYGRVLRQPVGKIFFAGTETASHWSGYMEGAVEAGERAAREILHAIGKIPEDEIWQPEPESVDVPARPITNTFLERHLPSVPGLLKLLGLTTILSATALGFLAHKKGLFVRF", "details": "in vivo; cited from earlier work"}, "[3]": {"tested_on": "catecholaminergic neurons", "assay": "Comparison of CAE potency", "excerpt": "All these differences in the efficiency between BPAP and Deprenyl came together from measuring their enhancer effect on the following four enhancer-sensitive brain regulations: dopaminergic, noradrenergic, serotonergic and TMS. Using the enhancer substances as specific experimental tools, we quite unexpectedly discovered the operation of an enhancer-sensitive TMS regulation in the rat brain. As expected, the majority of the enhancer-sensitive regulations and the endogenous enhancer substances pertaining to these regulations are unknown. Enhancer-research is obviously in its pioneer stage."}, "[4]": {"tested_on": "UW-228-2 cell line", "assay": "MTT proliferation assay, UW-228-2 medulloblastoma cells", "assay_type": "cell-based, human", "details": "for proliferation of cultured medulloblastoma cells: UW-228-2, monotherapy, nine concentrations 10^-14 to 10^-6 M, 72 hours", "method": "as §1, §2, §3, §4"}, "[5]": {"tested_on": "mouse colon carcinoma cells (C38)", "assay": "Mouse colon carcinoma (C38) spleen inoculation, liver metastasis", "assay_type": "in vivo", "details": "0.0001 mg/kg s.c. daily from one week before inoculation, day 23, p<0.05", "method": "In this study 30.000 mouse colon carcinoma cells (C38) were inoculated into the spleen of C57BI/6 mice and macroscopic liver metastasis observed on day 23 after inoculation. In the experiment a group of mice pretreated daily subcutaneously for one week with 0.0001 mg/kg BPAP prior to the inoculation of 30.000 cells/animal and further treated until the end of the experiment (23rd day) whereas the control animals have not received BPAP."}, "[6]": {"tested_on": "isolated locus coerulei of rats", "assay": "Norepinephrine release from isolated locus coerulei in organ bath", "design": "species or system rat", "details": "released within 20 min (FIG. 18)", "method": "In this study (−)-BPAP was given to the organ bath of the quickly removed locus coerulei of rats. Eight organs were used for the analysis of each concentration. The amount of norepinephrine released within 20 min from the tissue in the presence of different concentrations of (−)-BPAP was measured according to Knoll and Miklya (1995) (Paired Student's t-test. *P<0.01, **P<0.001.)"}, "[7]": {"tested_on": "mouse lung adenocarcinoma tumors", "assay": "Mouse lung adenocarcinoma xenograft model in FVB/N mice", "assay_type": "in vivo", "method": "Mouse primary lung adenocarcinoma tumors maintained subcutaneously were utilized in the present study. Tumors with sizes of 3 mm in diameter were implanted subcutaneously in a total of 18 FVB/N female mice with a bodyweight of 25 g. From the day after tumor inoculation, 6-6 animals started receiving (−)-BPAP daily as a subcutaneous injection at a concentration of either 0.0001 mg/kg (low dose) or 0.05 mg/kg (high dose). Tumor sizes were measured twice a week using a digital caliper. Tumor volumes were calculated by the following formula: […]\nStatistical analyses were made by Graphpad Prism 4.03 software. Significances of changes between control and (−)-BPAP-treated groups were assessed by using Mann-Whitney U-test. Significance was declared at the standard p<0.05 level."}, "[8]": {"tested_on": "lung carcinoma", "assay": "Longevity study on FVB/N mice: spontaneous lung carcinoma at autopsy", "assay_type": "in vivo, mouse", "details": "for Number of detected lung carcinoma: 18-month, 4 dissected mice", "method": "Body weight is measured bimonthly.\nFor monitoring, we planned to sacrifice mice from each group at 6-month, 1-year, 1.5-year and 2-year time-points; the rest of the animals are kept until spontaneous death.\nThe results are shown in Table 4 and on FIGS. 19 and 20. Significance levels were calculated with two-sided Chi-square test."}}}
{"smiles": "CCCN[C@H](CCC)Cc1cc2ccccc2o1", "note": "[(−)-BPAP, (2R)-1-(1-benzofuran-2-yl)-N-propylpentane-2-amine]", "values": [{"measurement": "effectiveness of tumor-cell proliferation inhibiting agents in combination", "setting": "[1]; 10^-13 or 10^-8 M combined with temozolomide, Cisplatin, etoposide or Vincristin", "value": "did not change the effectiveness"}, {"measurement": "proliferation of cultured medulloblastoma cells", "setting": "[1]", "value": "did not inhibit the proliferation"}, {"measurement": "proliferation of cultured medulloblastoma cells", "setting": "[1]; listed as BPAP", "value": "none of the applied concentrations did Deprenyl or BPAP influence the proliferation"}, {"measurement": "MAO-B inhibitory potency", "setting": "[2]", "value": "devoid of MAO-B inhibitory potency"}, {"measurement": "potency as CAE substance relative to Deprenyl", "setting": "[3]", "value": "~100", "unit": "times"}, {"measurement": "effectiveness of tumor-cell proliferation inhibiting agents in combination", "setting": "[4]; UW-228-2, 10^-13 or 10^-8 M combined with temozolomide, Cisplatin, etoposide or Vincristin", "value": "did not change the effectiveness"}, {"measurement": "proliferation of cultured medulloblastoma cells", "setting": "[4]", "value": "did not inhibit the proliferation"}, {"measurement": "proliferation of cultured medulloblastoma cells", "setting": "[4]; listed as BPAP", "value": "none of the applied concentrations did Deprenyl or BPAP influence the proliferation"}, {"measurement": "number of macroscopic liver metastasis", "setting": "[5]", "value": 2, "unit": "tumors/liver"}, {"measurement": "concentration effect curve of norepinephrine release", "setting": "[6]", "value": "bi-modal, bell-shaped"}, {"measurement": "tumor volume versus control", "setting": "[7]; high dose 0.05 mg/kg s.c. daily", "value": "did not reach statistical significance"}, {"measurement": "tumor volume versus control", "setting": "[7]; low dose 0.0001 mg/kg s.c. daily, from day 12 after implantation, p<0.05", "value": "significant differences in tumor volume"}, {"measurement": "Number of detected lung carcinoma", "setting": "[8]; 0.0001 mg/kg daily", "value": 0}, {"measurement": "Number of detected lung carcinoma", "setting": "[8]; 0.05 mg/kg daily", "value": 1}, {"measurement": "manifestation of lung carcinoma", "setting": "[8]; extremely low dose (0.0001 mg/kg), 1.5-year (FIG. 20)", "value": "completely prevented the manifestation of lung carcinoma"}]}
